According to DBAASP:
Converted amounts (≈) assume the structure as drawn. “And” between values parts separate entries of the source, which are not always exact repeats. Equal entries are not always repeated. Values belong to the molecule of their own block, whether it stands above or below them.

Key:
Experiment in all cases: ≥ marks a high value that may be exact or a test limit, other limits are often not marked, values filed in µg/mL are converted to µM
[1] = system: Enterococcus faecalis BCRC 10066
[2] = system: Helicobacter pylori ATCC 43504
[3] = system: Helicobacter pylori ATCC 700392
Vibrio alginolyticus = system: Vibrio alginolyticus
Vibrio vulnificus 204 = system: Vibrio vulnificus 204
[4] = system: Helicobacter pylori ATCC 43629
[5] = system: Streptococcus agalactiae 819
[6] = system: Pseudomonas aeruginosa ATCC 19660
[7] = system: Streptococcus agalactiae BCRC 10787
[8] = system: Aeromonas hydrophila BCRC 13018
Helicobacter pylori = system: Helicobacter pylori
[9] = system: Staphylococcus aureus ATCC 25923
[10] = system: Escherichia coli CIB 84492
[11] = system: Staphylococcus aureus CIB 85462
[12] = system: Candida albicans CIB 45437
[13] = system: Escherichia coli ATCC 25922
[14] = system: Staphylococcus aureus ATCC 6538
[15] = system: Escherichia coli ATCC 8739
[16] = system: Bacillus subtilis ATCC 9372
[17] = system: Proteus vulgaris NCTC 4635
[18] = system: Pseudomonas aeruginosa ATCC 9027
[19] = system: Acinetobacter baumannii NM75
[20] = system: Escherichia coli ATCC 25726
[21] = system: Acinetobacter baumannii NM8
[22] = system: Candida albicans ATCC 90028
[23] = system: Staphylococcus aureus ATCC 700699
[24] = system: Staphylococcus aureus ATCC 29213
[25] = system: Staphylococcus aureus ATCC 33591
[26] = system: Aggregatibacter actinomycetemcomitans ATCC 29522
[27] = system: Enterobacter cloacae NHTCC 53001
[28] = system: Pseudomonas aeruginosa ATCC 27853
[29] = system: Klebsiella pneumoniae ATCC 700603
[30] = system: Batrachochytrium dendrobatidis
[31] = system: Proteus mirabilis ATCC 25933
[32] = system: Klebsiella pneumoniae KK3 9904
[33] = system: Klebsiella pneumoniae ATCC 13883
[34] = system: Escherichia coli ATCC 11303
[35] = system: Staphylococcus aureus ATCC 259230
[36] = system: Staphylococcus aureus ATCC BAA-41
[37] = system: Escherichia coli KpC+001812446
[38] = system: Pseudomonas aeruginosa PAO1
[39] = system: Staphylococcus epidermidis
[40] = system: Klebsiella pneumoniae KpC+001825971
Escherichia coli BL21 = system: Escherichia coli BL21
[41] = system: Staphylococcus aureus ATCC 6538P

MIC [1]: 11.1 µM (≈ 23.6 µg/mL) | MIC [2]: 5.66 µM (≈ 12 µg/mL) | MIC [3]: 5.66 µM (≈ 12 µg/mL) | MIC (Vibrio alginolyticus): 11.1 µM (≈ 23.6 µg/mL) | MIC (Vibrio vulnificus 204): 11.1 µM (≈ 23.6 µg/mL) | MIC [4]: 5.66 µM (≈ 12 µg/mL) | MIC [5]: 11.1 µM (≈ 23.6 µg/mL) | MIC [6]: 11.1 µM (≈ 23.6 µg/mL) | MIC [7]: 11.1 µM (≈ 23.6 µg/mL) | MIC [8]: 11.1 µM (≈ 23.6 µg/mL) | MIC (Helicobacter pylori): 5.66 µM (≈ 12 µg/mL)
Structure (SMILES): CC(C)C[C@H](NC(=O)[C@@H](NC(=O)[C@H](CO)NC(=O)[C@H](CC(=O)O)NC(=O)[C@H](Cc1c[nH]c2ccccc12)NC(=O)[C@H](CC(=O)O)NC(=O)[C@@H](N)Cc1ccccc1)C(C)C)C(=O)N[C@@H](CCCCN)C(=O)NCC(=O)N[C@H](C(=O)N[C@@H](CCC(=O)O)C(=O)NCC(=O)N[C@@H](Cc1ccccc1)C(=O)N[C@H](C(=O)N[C@@H](CCCN=C(N)N)C(=O)NCC(=O)N[C@@H](Cc1ccc(O)cc1)C(=O)N[C@@H](Cc1ccccc1)C(N)=O)C(C)C)C(C)C [FDWDSVLKGVEGFVRGYF]

MIC [9]: 15.7 µM (≈ 32 µg/mL) | MIC [10]: 15.7 µM (≈ 32 µg/mL) | MIC [11]: 7.86 µM (≈ 16 µg/mL) | MIC [12]: ≥ 62.9 µM | MIC [13]: 15.7 µM (≈ 32 µg/mL)
Structure (SMILES): CC[C@H](C)[C@H](NC(=O)CN)C(=O)N[C@@H](Cc1ccccc1)C(=O)NCC(=O)N[C@@H](CCCCN)C(=O)N[C@H](C(=O)N[C@@H](CC(C)C)C(=O)NCC(=O)N[C@@H](C)C(=O)NCC(=O)N[C@@H](CCCCN)C(=O)N[C@@H](CCCCN)C(=O)N[C@H](C(=O)N[C@@H](CC(C)C)C(=O)N[C@H]1CSSC[C@@H](C(=O)O)NC(=O)[C@H](CC(C)C)NC(=O)CNC(=O)[C@H](CO)NC(=O)[C@H](CC(C)C)NC(=O)CNC1=O)C(C)C)[C@@H](C)CC [GIFGKILGAGKKVLCGLSGLC]

MIC [14]: > 1040 µM | MIC [15]: ≥ 1040 µM | MIC [16]: ≥ 1040 µM | MIC [17]: ≥ 1040 µM | MIC [18]: > 1040 µM
Structure (SMILES): CC[C@H](C)[C@H](NC(=O)[C@@H](NC(=O)[C@@H](NC(=O)[C@H](CC(=O)O)NC(=O)[C@H](Cc1ccccc1)NC(=O)[C@H](CC(C)C)NC(=O)CN)C(C)C)C(C)C)C(=O)NCC(=O)NCC(=O)N[C@@H](CC(C)C)C(=O)O [GLFDVVIGGL]

MIC [9]: > 250 µM | MIC [19]: 2.5 µM (≈ 5.8 µg/mL) | MIC [20]: 10 µM (≈ 23.2 µg/mL) | MIC [21]: 5 µM (≈ 11.6 µg/mL) | MIC [22]: 20 µM (≈ 46.4 µg/mL)
Structure (SMILES): CC[C@H](C)[C@H](NC(=O)CNC(=O)[C@H](CCCCN)NC(=O)[C@@H](NC(=O)[C@H](CC(C)C)NC(=O)[C@H](CO)NC(=O)CNC(=O)[C@H](CC(C)C)NC(=O)CNC(=O)[C@H](C)NC(=O)[C@H](CCCCN)NC(=O)[C@H](Cc1ccccc1)NC(=O)[C@@H](NC(=O)[C@H](CCCCN)NC(=O)[C@H](CCCCN)NC(=O)[C@H](CC(C)C)NC(=O)CN)[C@@H](C)CC)C(C)C)C(=O)N[C@@H](CCCCN)C(=O)N[C@@H](C)C(=O)N[C@@H](Cc1cnc[nH]1)C(=O)N[C@H](C(=O)N[C@@H](C)C(=O)N[C@@H](CO)C(N)=O)C(C)C [GLKKIFKAGLGSLVKGIKAHVAS]

MIC [9]: 110 µM (≈ 280 µg/mL) | MIC [23]: ≥ 100 µM | MIC [24]: > 100 µM | MIC [25]: ≥ 100 µM | MIC [26]: 24.8 µM (≈ 63.3 µg/mL) | MIC [27]: 20 µM (≈ 51 µg/mL) | MIC [28]: 80 µM and 100 µM | MIC [29]: 100 µM (≈ 255 µg/mL) | MIC [30]: ≥ 100 µM | MIC [31]: ≥ 160 µM | MIC [32]: ≥ 80 µM
Structure (SMILES): CC[C@H](C)[C@H](NC(=O)[C@H](CC(=O)O)NC(=O)[C@H](CCCCN)NC(=O)[C@H](C)NC(=O)[C@H](C)NC(=O)CNC(=O)[C@H](CCCCN)NC(=O)[C@H](CC(C)C)NC(=O)[C@@H](NC(=O)[C@H](CC(=O)O)NC(=O)[C@@H](NC(=O)[C@@H](NC(=O)CN)C(C)C)C(C)C)[C@@H](C)CC)C(=O)N[C@@H](C)C(=O)NCC(=O)N[C@@H](Cc1cnc[nH]1)C(=O)N[C@@H](CC(C)C)C(=O)N[C@@H](C)C(=O)N[C@@H](CO)C(=O)N[C@@H](CCCCN)C(=O)N[C@H](C(=O)N[C@@H](CCSC)C(=O)N[C@@H](CC(N)=O)C(=O)N[C@@H](CCCCN)C(=O)N[C@@H](CC(C)C)C(N)=O)C(C)C [GVVDILKGAAKDIAGHLASKVMNKL]

MIC [33]: ≥ 36 µM | MIC [34]: ≥ 50 µM | MIC [35]: ≥ 50 µM | MIC [36]: 1.41 µM (≈ 2.5 µg/mL) | MIC [37]: 5 µM (≈ 8.86 µg/mL) | MIC [38]: 2.83 µM (≈ 5.01 µg/mL) | MIC [39]: 0.707 µM (≈ 1.25 µg/mL) | MIC [40]: 9 µM (≈ 15.9 µg/mL) | MIC [13]: 5 µM (≈ 8.86 µg/mL) | MIC (Escherichia coli BL21): 0.707 µM (≈ 1.25 µg/mL) | MIC [41]: 1 µM (≈ 1.77 µg/mL)
Structure (SMILES): CC[C@H](C)[C@H](NC(=O)[C@H](CCCCN)NC(=O)[C@H](CCCCN)NC(=O)[C@H](Cc1ccccc1)NC(=O)[C@H](CC(C)C)NC(=O)[C@H](CCCCN)NC(=O)[C@H](Cc1c[nH]c2ccccc12)NC(=O)[C@@H](N)CCCCN)C(=O)NCC(=O)N[C@@H](C)C(=O)N[C@H](C(=O)N[C@@H](CC(C)C)C(=O)N[C@@H](CCCCN)C(=O)N[C@H](C(=O)N[C@@H](CC(C)C)C(=O)O)C(C)C)C(C)C [KWKLFKKIGAVLKVL]
